These results are taken from paper PMC10917278, “Structural insights into the modulation Of SOD1 aggregation By a fungal metabolite Phialomustin-B: Therapeutic potential in ALS” (PLOS ONE, 2024).

In this test the target is T1, SOD1^G10P (Homo sapiens, UniProt P00441, G11P).
T1 construct: His-tag (cleaved yes); made in house; host or cells: E. coli BL21-DE3
As to the kind of experiment: MST binding assay, site-specific mutant SOD1^G10P. Particulars: PBS buffer, mutant 25 nM, PB 30.5 nM to 250 μM, 25 °C, SEM n = 3, read-out: binding affinity Kd. On the procedure: To further validate the binding of PB to SOD1, site-directed mutagenesis was performed for the interacting residues at the binding sites of PB. The point mutations generated on the SOD1 protein are K9F, G10P, L42R, and A123F. The MST assay was carried out on these mutants against PB (Fig 5). The dose-response curve with the highest signal-to-noise ratio, high response amplitude, and lowest error rate was selected for measuring the binding affinity (Kd) value. […] Binding at the electrostatic loop is affected majorly by mutating residues at A123 to phenylalanine and L42 to arginine. […] Taken together, the binding affinities of these mutants confirm the ligand bindings at these sites of SOD1 are specific.
Fig 5 MST interaction analysis of fluorescently labeled SOD1 mutants against PB. The binding of PB to fluorescently Cys-labeled SOD1- variants is quantified in PBS buffer. The concentration of PB varied from 30.5 nM to 250 μM, while the respective mutants were kept constant at 25 nM. MST experiments were conducted at 20% LED excitation and medium MST power at 25 °C. […] Error bars indicate the standard error of the mean, SEM (n = 3). […] The ligand PB is printed only in the titles of panels a-d, so the mutant names are used as the substance labels.
Binding studies were performed for SOD1^WT and the ligands using microscale thermophoresis (MST). […]

T1 sequence (P00441 whole entry G11P): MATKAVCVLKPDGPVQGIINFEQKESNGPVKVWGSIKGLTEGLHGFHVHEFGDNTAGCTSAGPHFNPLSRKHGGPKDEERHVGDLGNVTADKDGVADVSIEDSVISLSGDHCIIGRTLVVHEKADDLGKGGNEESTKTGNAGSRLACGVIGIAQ

For `CCCC[C@H](C)/C=C(C)/C=C/C(=O)O` [PB, (S, 2E, 4E)-4,6-dimethyldeca-2,4-dienoic acid], the Kd was determined as 15.9 ± 2.65 µM.
